Series [1] has as its target 20S Immunoproteasome chymotrypsin-like (CT-L) activity (Homo sapiens (Human), UniProt P20618+P28062). The series is described as follows: 20S immunoproteasome CT-L activity inhibition, fluorogenic substrate succinyl-Leu-Leu-Val-Tyr-AMC. Particulars: purified human 20S proteasome, room temperature, one hour. It is filed as biochemical. The method, then:
(§1) Inhibition of the 20S proteasome can be determined by methods and assays known in the art, for example, as disclosed by Stein et al., Biochemistry (1996), 35, 3899-3908; by Lightcap et al., Clinical Chemistry, 2000, 46, 673-683; by Kisselev et al., Journal of Biological Chemistry. (2006), 281, 8582-8590 and in U.S. application Ser. No. 09/569,748. The chymotrypsin-like (CT-L), peptidylglutamyl peptide hydrolyzing (PGPH) and trypsin-like (T-L) activities of the 20S proteasome are measured with a fluorogenic substrate assay method using succinyl-Leu-Leu-Val-Tyr-AMC, Z-Leu-Leu-Glu-AMC and Boc-Leu-Arg-Arg-AMC, respectively, as the substrates in an assay buffer. The free fluorophore 7-Amino-4-methylcoumarin (AMC) after cleavage from the substrates is quantified using a fluorometer and activity of CT-L, PGPH and T-L of 20S proteasome is determined.
(§2) Inhibition of the chymotrypsin-like (CT-L), peptidylglutamyl peptide hydrolyzing activity (PGPH), and trypsin-like (T-L) activities of the 20S proteasome in enzymatic assays were determined using succinyl-Leu-Leu-Val-Tyr-AMC (10 μmol/L), Z-Leu-Leu-Glu-AMC (10 μmol/L) and Boc-Leu-Arg-Arg-AMC (50 μmol/L), respectively, as the substrates with purified human 20S proteasome at 2, 4 and 8 nmol/L, respectively, in the assay buffer containing 25 mM HEPES (pH7.5), 0.5 mM EDTA, 0.002% sodium dodecyl sulfate (SDS) and 0.05% NP-40. Stock solutions of the 20S proteasome inhibitors disclosed herein were prepared in dimethyl sulfoxide (DMSO) and the final DMSO concentration in the assay mixture was 1%. Reaction was conducted at room temperature for one hour. Proteasome activity was measured based on detection of the fluorophore 7-Amino-4-methylcoumarin (AMC) after cleavage from the substrates with a plate-based spectrofluorometer.

A short description of series [2]: Aqueous solubility of the compounds. The format is physicochemical. Particulars: 50 mM citrate buffer, pH 4, aqueous buffer, thermodynamic from solid, 50 mM citrate pH4.0, 25° C. On the procedure:
To determine the solubility of the compounds, 1-5 mg of a compound was weighed into a vial. 1 mL of aqueous buffer (50 mM citrate at pH4.0) was added. The vial was shaken at 25° C. for 24 hours and then centrifuged for 10 min at 10000 rpm. The supernatant was filtered through a 0.45 μm membrane filter and analyzed for the concentration of the compound. In certain embodiments, the aqueous solubility of the compounds is described herein in Table 1.

In series [3] the target is Constitutive 20S proteasome trypsin-like (T-L) activity (Homo sapiens (Human), UniProt P49720+Q99436). The series is described as follows: Constitutive 20S proteasome T-L activity inhibition, fluorogenic substrate Boc-Leu-Arg-Arg-AMC. The format is biochemical. On the procedure: as §1, §2
Series [4] concerns the target 20S Immunoproteasome peptidylglutamyl peptide hydrolyzing (PGPH) activity (Homo sapiens (Human), UniProt P28065+P40306). The series is described as follows: 20S immunoproteasome PGPH activity inhibition, fluorogenic substrate Z-Leu-Leu-Glu-AMC. It is filed as biochemical. Particulars: purified human 20S proteasome, room temperature, one hour. The method, then: as §1, §2

The target in series [5] is Constitutive 20S proteasome chymotrypsin-like (CT-L) activity (Homo sapiens (Human), UniProt P20618+P28074). The series is described as follows: Constitutive 20S proteasome CT-L activity inhibition, fluorogenic substrate succinyl-Leu-Leu-Val-Tyr-AMC. It is filed as biochemical. The method, then:
as §1, §2

Series [6] concerns T-L activity of the 20S proteasome in blood samples. The series is described as follows: Inhibition of proteasome T-L activity in blood samples from dosed Balb/c mice. The conditions noted are these: intravenous 10 mg/kg or oral gavage 30 mg/kg (route not given), one hour after dosing, vs vehicle. It is filed as in vivo. The method, then:
(§3) The proteasome activity in the blood samples collected from mice administrated of the vehicle was considered as 100% (control group). The remaining activity was calculated by comparing the proteasome activity in the blood samples collected from mice administrated of a compound described herein via intravenous injection (IV) at 10 mg/kg or via oral gavage (PO) at 30 mg/kg to the control group.
(§4) Balb/c mice were administered of either a vehicle (20% (w/v) hydroxypropyl-β-cyclodextrin in 10 mM sodium citrate at pH3.5), or a compound described herein at a tolerated dose via intravenous injection at 10 mg/kg or oral gavage at 30 mg/kg. One hour after dosing, whole blood samples were collected into tubes containing sodium heparin by cardiac puncture and centrifuged at 150×g for 5 minutes at 4° C. The resulting pellet was washed using ice-cold phosphate buffered saline (PBS) three times. […] The concentration of the blood lysate was measured by BCA method. […] The free AMC fluorescence was quantified using a 360/460 nm filter set in a fluorometer to measure the CT-L, PGPH or T-L activities of the 20S proteasome. Percent inhibition of the proteasome activity was calculated by comparing the samples collected from the mice administrated of a compound described herein to the samples collected from the mice administrated of the vehicle. […]

In series [7] the test system is CT-L activity of the 20S proteasome in blood samples. The series is described as follows: Inhibition of proteasome CT-L activity in blood samples from dosed Balb/c mice. It is filed as in vivo. The conditions noted are these: one hour after dosing, vs vehicle. On the procedure:
as §3, §4

Series [8] deals with 20S Immunoproteasome trypsin-like (T-L) activity (Homo sapiens (Human), UniProt P40306+P49720). The series is described as follows: 20S immunoproteasome T-L activity inhibition, fluorogenic substrate Boc-Leu-Arg-Arg-AMC. It is filed as biochemical. The conditions noted are these: purified human 20S proteasome, room temperature, one hour. The method, then: as §1, §2
The target of series [9] is Constitutive 20S proteasome peptidylglutamyl peptide hydrolyzing (PGPH) activity (Homo sapiens (Human), UniProt P28072+Q99436). The series is described as follows: Constitutive 20S proteasome PGPH activity inhibition, fluorogenic substrate Z-Leu-Leu-Glu-AMC. Particulars: purified human 20S proteasome, room temperature, one hour. It is filed as biochemical. On the procedure:
as §1, §2

Setting [10] is: purified human 20S proteasome, room temperature, one hour, read-out: Proteasome inhibition IC50 (nM) Constitutive 20S proteasome T-L.
[11] abbreviates: form of 20S proteasome not stated, 'below about'.
Setting [12] is: purified human 20S proteasome, room temperature, one hour, read-out: Proteasome inhibition IC50 (nM) Constitutive 20S proteasome CT-L.

Converted amounts (≈) assume the structure as drawn. Read-outs that look alike come from different tables or passages of the source.

In general, solubility refers to the dissolved amount per volume that the medium holds. Higher therefore signals a readily soluble substance.

For `COC[C@H](NC(=O)[C@H](CCc1ccccc1)NC(=O)Cc1ccc(CN2CCOCC2)cc1)C(=O)N[C@@H](Cc1ccccc1)C(=O)[C@@]1(C)CO1` [CX13-608], the IC50 in series [1] is 4.26 nM; in series [3] (form of 20S proteasome not stated, 'below about', read-out: concentration showing inhibition of T-L activity of the 20S proteasome), less than 500 nM; in series [3] (setting [10]) it was 490 nM; in series [4], greater than 20000 nM; in series [5] (setting [11]), less than 5 nM; in [5] (setting [12]) it was 3.73 nM. Further, the IC50 in series [8] was 542 nM; in [9] it was greater than 20000 nM. For the same compound, the solubility at 24 h in series [2] was 1430 µg/mL (≈ 2090 µM). Further, in series [6], the “inhibition of T-L activity in blood samples” value is “inhibited both CT-L and T-L activity”. For the same compound, in [7] (intravenous 10 mg/kg or oral gavage 30 mg/kg (route not given)), the “inhibition of CT-L activity in blood samples” value is “inhibited both CT-L and T-L activity”.
`COC[C@H](NC(=O)[C@H](CCc1ccccc1)NC(=O)c1cc(CN2CCOCC2)on1)C(=O)N[C@@H](Cc1ccccc1)C(=O)[C@@]1(C)CO1` [CX13-603]: the IC50 was 11.1 nM in series [1]; greater than 20000 nM in [3] (setting [10]); greater than 20000 nM in series [4]; less than 50 nM in [5] (setting [11]); 14.2 nM in [5] (setting [12]); greater than 20000 nM in series [8]. For the same compound, in series [9], the IC50 was greater than 20000 nM. For the same compound, the solubility at 24 h in [2] amounted to 520 µg/mL (≈ 786 µM). The “inhibition of CT-L activity in blood samples” value in [7] (oral gavage at 30 mg/kg) is listed as “inhibited the CT-L activity in blood samples”.
